# Columns and labels:
# WT ExoAc = WT ExoAc (Pseudomonas aeruginosa, UniProt P11439); assay: biochemical; type: binding, P. aeruginosa; details: read-out: Kd
# cholix toxin = cholix toxin (Vibrio cholerae, UniProt Q5EK40); assay: biochemical; type: biochemical; details: for IC50: read-out: IC50; for Ki: read-out: Ki
# [1] = test system: Saccharomyces cerevisiae cells expressing the catalytic domain of P. aeruginosa ExoA (ExoAc); assay: Yeast-based compound screen; type: cell-based; details: compound 50 μM; w303 strain; growth restored
# C38 cells = assay: Mammalian C38 cell drug sensitivity assay (MTT); type: cell-based, Human; details: compound 50 μM
# Protocol: The C38 cells were cultured in 25 cm^2 culture flasks containing LHC-8 media with 5% fetal bovine serum at 37° C. in 5% CO2 until 90-100% confluency. The cells were washed with phosphate-buffered saline (PBS) and then detached from the culture flask by treating the cells with Puck's Saline Solution containing 0.02% EDTA. The cell suspension was diluted to a final density of 1.0×10^5 cells/mL and 100-μL aliquots were used to seed a 96-well plate. The cells were then grown in the presence of 50 μM of inhibitor (nonpolar compounds required 0.5% DMSO for solubility).
# Sequence of cholix toxin (Q5EK40 33-666 limits assumed): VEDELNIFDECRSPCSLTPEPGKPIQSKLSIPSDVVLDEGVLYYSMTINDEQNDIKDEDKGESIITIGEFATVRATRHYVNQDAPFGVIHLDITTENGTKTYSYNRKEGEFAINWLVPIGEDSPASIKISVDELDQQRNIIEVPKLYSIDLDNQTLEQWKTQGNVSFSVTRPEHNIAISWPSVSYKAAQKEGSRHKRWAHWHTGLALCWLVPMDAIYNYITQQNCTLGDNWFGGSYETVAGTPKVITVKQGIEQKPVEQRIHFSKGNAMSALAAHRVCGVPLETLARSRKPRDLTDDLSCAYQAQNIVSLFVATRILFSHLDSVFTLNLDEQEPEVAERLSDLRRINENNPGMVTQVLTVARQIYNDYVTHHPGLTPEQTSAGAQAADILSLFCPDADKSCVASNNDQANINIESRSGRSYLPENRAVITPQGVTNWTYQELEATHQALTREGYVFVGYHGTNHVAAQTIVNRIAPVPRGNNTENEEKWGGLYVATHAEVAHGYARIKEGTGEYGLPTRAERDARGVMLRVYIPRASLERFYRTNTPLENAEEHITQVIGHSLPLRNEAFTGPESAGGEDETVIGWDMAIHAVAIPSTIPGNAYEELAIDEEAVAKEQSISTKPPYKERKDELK
# Sequence of WT ExoAc (P11439 430-638 limits assumed): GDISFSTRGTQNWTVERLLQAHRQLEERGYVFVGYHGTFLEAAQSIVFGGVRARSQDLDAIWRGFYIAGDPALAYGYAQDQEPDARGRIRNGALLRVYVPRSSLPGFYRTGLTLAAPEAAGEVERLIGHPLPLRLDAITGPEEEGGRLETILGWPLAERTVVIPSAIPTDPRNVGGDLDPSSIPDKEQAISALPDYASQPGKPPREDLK
Compound,Kd (WT ExoAc) [µM],IC50 (cholix toxin) [µM],Ki (cholix toxin) [µM],Protection in Yeast [1],toxicity to C38 cells (C38 cells)
CN(C)CCCOc1ccc(-c2nc3cccc4c3n2CCNC4=O)cc1 [Compound P2],0.26 ± 0.01,0.48 ± 0.04,0.063 ± 0.005,− (Compounds showing less than 5% growth were scored (−)),toxic
CN1CCN(C2CCC3NC(O)C4CCCCC4C3N2)CC1 (stereo not drawn) [Compound P3],1.47 ± 0.03,0.69 ± 0.13,0.09 ± 0.017,− (Compounds showing less than 5% growth were scored (−)),toxic
O=c1[nH]nc2c3c(cccc13)N=CN2 [Compound P7],0.68 ± 0.04,0.908 ± 0.118,0.118 ± 0.007,− (Compounds showing less than 5% growth were scored (−)),toxic

# — patent US20120142682A1, “ANT[…] INHIBITING BACTERIAL MONO-ADP-RIBOSYLT[…]” (UNIVERSITY OF GUELPH, priority 2010, published 2012)
